# Patent US6737511B1 (priority 1999, dated 2004)
# Experiments:
# Cos-7 cells = assay type: cell-based, monkey
# HeLa cells = assay type: cell-based, human; conditions: chloroquine 10 μM
# J774 cells = assay type: cell-based
compound,measurement,setting,value
brefeldin A,effect on anti-apoptosis activity of Bcl-xL-DTR,Cos-7 cells,does block the anti-apoptosis activity of Bcl-xL-DTR
CCN(CC)CCCC(C)Nc1ccnc2cc(Cl)ccc12 (stereo not shown) [Chloroquine],effect on Bcl-xL-DTR inhibition of poliovirus-induced cell death,HeLa cells,did not block the activity of Bcl-xL-DTR to inhibit poliovirus-induced cell death
"CN[C@@H]1C[C@H]2O[C@@](C)([C@@H]1OC)n1c3ccccc3c3c4c(c5c6ccccc6n2c5c31)C(=O)NC4 [STS, staurosporine]",apoptosis induced in J774 cells,J774 cells,died by apoptosis over the following 36 hours
same,Cell death (%),Cos-7 cells,24%
